Experimental data as given in article PMC9504289 (Pharmaceuticals, 2022).

tested on: mutant spike proteins including D614G, delta (B.1.617.2), and omicron (B.1.1.529) – hACE2; assay type: binding, SARS-CoV-2, human; conditions: read-out: IC50 in all assays with mutant spike proteins

SMILES | IC50 [µM]
O=C(Nc1ccc(-c2ccc(C(=O)Nc3cccc4c(S(=O)(=O)O)cccc34)cc2)cc1)c1ccc([N+](=O)[O-])cc1 [DRI-C24041] | < 3
O=C(Nc1ccc(-c2ccc(C(=O)Nc3cccc4cc(S(=O)(=O)O)ccc34)cc2)cc1)c1ccc([N+](=O)[O-])cc1 [DRI-C23041] | < 3
O=S(=O)(O)c1ccc(/N=N/c2c(O)ccc3cc(S(=O)(=O)O)ccc23)cc1 [Sunset yellow, sunset yellow FCF] | > 500
